Experimental data: US20260034236A1, “NEW DRUG COMPLEX” (KOWA COMPANY, LTD., priority 2022, published 2026)

Experiments:
[1] = test system: CD20 antigen-positive human B-cell lymphoma-derived Raji cells; assay: Cytotoxic test (CellTiter-Glo), CD20 antigen-positive cells; assay type: cell-based; details: high expression of CD20, cultured 4 days, read-out: IC50(nmol/L) Raji (High expression of CD20)
Procedure: (§1) CD20 antigen-positive human B-cell lymphoma-derived Raji cells or CD20 antigen-negative human T-lymphoblastic leukemia-derived MOLT-4 cells were adjusted to a cell concentration of 5.0×10^4 cells/mL with the RPMI1640 medium, and 50 μL each was added to the 96-well microplate for cell culture, then cultured overnight. On the next day, 50 μL of the evaluation specimen diluted with the RPMI medium was separately added to the microplate, and the cells were cultured for 4 days at 37° C. under 5% CO2. After the culturing, CellTiter-Glo™ Luminescent Cell Viability Assay (Promega Corporation) was added to the microplate, and the mixture was stirred and left to stand at room temperature for 10 minutes. The light emission amount was then measured with a plate reader (Molecular Devices, LLC.). The cell viability and IC50 value were calculated.

[2] = test system: CD20 antigen-negative human T-lymphoblastic leukemia-derived MOLT-4 cells; assay: Cytotoxic test (CellTiter-Glo), CD20 antigen-negative cells; assay type: cell-based; details: cultured 4 days, read-out: IC50(nmol/L) MOLT-4 (CD20 negative)
Procedure: as §1

[3] = test system: mouse colon cancer cell line C26; assay: Drug efficacy test in C26 tumor-bearing nude mice; assay type: in vivo; details: after 14 days from administration; tail vein, 3 times every other day; 8 mg/kg (3.9 mg/kg in terms of Pt)
Procedure: A tumor-bearing model obtained by subcutaneously transplanting a mouse colon cancer cell line C26 (American Type Culture Collection) into a female nude mouse (BALB/c-nu/nu, 7 weeks old; Charles River Laboratories Japan, Inc.) was used for a drug efficacy test.
A mouse colon cancer cell line C26 subcultured in a CO2 incubator was suspended in a liquid medium (Dulbecco's Modified Eagle's Medium-high glucose, Sigma-Aldrich Co. LLC), and injected subcutaneously in the back of nude mice so that the number of cells per mouse was 1×10^6/100 μL. Thereafter, the nude mice were raised for about 1 week, and administration of a drug was started when the average value of the tumor volume had grown to about 30 mm^3. A DACHPt-encapsulating SCNP (DACHPt-encapsulating SCNP prepared using the copolymer of Example 70) was administered into the tail vein (3 times every other day), and the antitumor effect was evaluated based on the tumor volume (4 to 5 mice per 1 group). As a comparison, an oxaliplatin solution (Comparative Example 1) was used, and it was administered in the same manner. The dose of each preparation was 8 mg/kg (3.9 mg/kg in terms of Pt) as the maximum administrable dose for the oxaliplatin solution, and 3 mg/kg in terms of Pt for the DACHPt-encapsulating SCNP. […]

Row | Compound | IC50 [1] [nmol/L] | IC50 [2] [nmol/L] | T/C (ratio of the tumor volume of the drug administration group to that of the control group) [3]
1 | rituximab [Comparative Example 4] | > 69 | > 69 | –
2 | O=C1[O][Pt]2([NH][C@@H]3CCCC[C@H]3[NH]2)[O]C1=O [Comparative Example 1, oxaliplatin] | – | – | 1.1
